Reference: patent US20250179078A1, “INHIBITORS OF NLRP3” (PTC THERAPEUTICS, INC., priority 2022, published 2025)

Molecular target: T1, NLRP3 (Homo sapiens, UniProt Q96P20)
T1 construct: host or cells: THP-1 cells differentiated with PMA
Experiment: IL-1β Secretion Assay (NLRP3-dependent IL1β secretion in THP1 cells)
Format: cell-based
Details: PMA-differentiated THP-1 cells; compounds incubated 20 h; 2.5 μM Nigericin 3 h; HTRF IL-1β readout; read-out: IC50 IL-1β Inhibition
Summary of the method: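 THP-1 cells differentiated with 100 ng/mL PMA for 24 h, then given compound (7-point 3-fold series, 1:200 from DMSO) for 20 h in RPMI+5% FBS. NLRP3 activated with 2.5 μM nigericin for 3 h; secreted IL-1β measured by HTRF; IC50 from logistic fit of % inhibition.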

T1 sequence (Q96P20 whole entry): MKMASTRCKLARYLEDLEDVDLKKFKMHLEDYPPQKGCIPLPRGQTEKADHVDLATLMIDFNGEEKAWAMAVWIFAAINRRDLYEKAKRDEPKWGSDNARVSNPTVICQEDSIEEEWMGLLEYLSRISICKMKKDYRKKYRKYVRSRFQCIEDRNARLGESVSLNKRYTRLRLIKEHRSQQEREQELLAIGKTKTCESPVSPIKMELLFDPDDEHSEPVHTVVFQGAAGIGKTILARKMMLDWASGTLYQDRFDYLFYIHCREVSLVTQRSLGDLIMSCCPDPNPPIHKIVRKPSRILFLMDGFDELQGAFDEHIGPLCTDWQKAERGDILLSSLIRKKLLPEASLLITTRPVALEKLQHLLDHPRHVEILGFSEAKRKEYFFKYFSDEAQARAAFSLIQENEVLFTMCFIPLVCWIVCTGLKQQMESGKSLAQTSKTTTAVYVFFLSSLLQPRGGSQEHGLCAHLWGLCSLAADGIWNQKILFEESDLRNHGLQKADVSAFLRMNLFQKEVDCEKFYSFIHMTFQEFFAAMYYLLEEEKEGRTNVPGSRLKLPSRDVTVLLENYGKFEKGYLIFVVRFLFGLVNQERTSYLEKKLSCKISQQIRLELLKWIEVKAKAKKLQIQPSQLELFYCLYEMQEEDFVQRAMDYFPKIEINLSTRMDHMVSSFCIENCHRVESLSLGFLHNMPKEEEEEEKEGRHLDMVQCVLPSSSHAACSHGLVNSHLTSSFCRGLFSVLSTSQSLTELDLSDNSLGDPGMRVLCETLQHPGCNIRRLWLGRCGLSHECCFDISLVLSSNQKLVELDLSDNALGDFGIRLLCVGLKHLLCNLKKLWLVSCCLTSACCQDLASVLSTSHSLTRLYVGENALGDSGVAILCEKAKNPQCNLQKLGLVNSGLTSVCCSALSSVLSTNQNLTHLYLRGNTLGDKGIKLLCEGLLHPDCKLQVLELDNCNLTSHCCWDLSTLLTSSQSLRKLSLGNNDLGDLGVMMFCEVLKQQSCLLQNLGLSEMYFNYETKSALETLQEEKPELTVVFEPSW

IC50 [nM]	SMILES
10 to 100	COc1ccc(-c2nnc(NCC(C)(C)O)n3cccc23)c(OC(F)(F)F)c1 [Compound 66, 1-({1-[4-methoxy-2-(trifluoromethoxy)phenyl]pyrrolo[1,2-d][1,2,4]triazin-4-yl}amino)-2-methylpropan-2-ol]
1 to 10	O=C1NCCC1Nc1nnc(-c2ccc(OC(F)F)cc2OC(F)(F)F)c2cncn12 (stereo not shown) [Compound 260, 3-({1-[4-(difluoromethoxy)-2-(trifluoromethoxy)phenyl]imidazo[1,5-d][1,2,4]triazin-4-yl}amino)pyrrolidin-2-one]
1 to 10	O[C@@H]1CCCC[C@H](Nc2nnc(-c3ccc(C(F)(F)F)cc3CC(F)(F)F)c3cccn23)C1.O[C@H]1CCCC[C@@H](Nc2nnc(-c3ccc(C(F)(F)F)cc3CC(F)(F)F)c3cccn23)C1 [Compound 128, (1S,3R)-3-({1-[2-(2,2,2-trifluoroethyl)-4-(trifluoromethyl)phenyl]pyrrolo[1,2-d][1,2,4]triazin-4-yl}amino)cycloheptan-1-ol AND (1R,3S)-3-({1-[2-(2,2,2-trifluoroethyl)-4-(trifluoromethyl)phenyl]pyrrolo[1,2-d][1,2,4]triazin-4-yl}amino)cycloheptan-1-ol]
10 to 100	FC(F)(F)c1ccc(-c2nnc(Nc3cc[nH]n3)n3cncc23)c(C(F)(F)F)c1 [Compound 285, 1-[2,4-bis(trifluoromethyl)phenyl]-N-(1H-pyrazol-3-yl)imidazo[1,5-d][1,2,4]triazin-4-amine]
1 to 10	COc1ccc(-c2nnc(NC3CCNC3=O)n3cncc23)c(OC(F)F)c1 (stereo not shown) [Compound 269, 3-({1-[2-(difluoromethoxy)-4-methoxyphenyl]imidazo[1,5-d][1,2,4]triazin-4-yl}amino)pyrrolidin-2-one]
1 to 10	CN1CCC[C@H](CNc2nnc(-c3ccc(C(F)(F)F)cc3CC(F)(F)F)c3cccn23)C1 [Compound 147, N-{[(3R)-1-methylpiperidin-3-yl]methyl}-1-[2-(2,2,2-trifluoroethyl)-4-(trifluoromethyl)phenyl]pyrrolo[1,2-d][1,2,4]triazin-4-amine]
< 1	COc1ccc(-c2nnc(N[C@@H]3CCCN(C)C3)n3cc(C)cc23)c(OC(F)(F)F)c1 [Compound 131, 1-[4-methoxy-2-(trifluoromethoxy)phenyl]-7-methyl-N-[(3R)-1-methylpiperidin-3-yl]pyrrolo[1,2-d][1,2,4]triazin-4-amine]
10 to 100	COc1ccc(-c2nnc(NC3CC(C(C)(C)O)C3)n3cncc23)c(CC(F)(F)F)c1 (stereo not shown) [Compound 327, 2-[3-({1-[4-methoxy-2-(2,2,2-trifluoroethyl)phenyl]imidazo[1,5-d][1,2,4]triazin-4-yl}amino)cyclobutyl]propan-2-ol]
10 to 100	OCCN1CCC[C@@H](Nc2nnc(-c3ccc(C(F)(F)F)cc3OC3CC3)c3cccn23)C1 [Compound 179, 2-[(3R)-3-({1-[2-(cyclopropyloxy)-4-(trifluoromethyl)phenyl]pyrrolo[1,2-d][1,2,4]triazin-4-yl}amino)piperidin-1-yl]ethan-1-ol]
1 to 10	OC[C@H]1C[C@@H](Nc2nnc(-c3ccc(C4CC4)cc3CC(F)(F)F)c3cncn23)C1 [Compound 349, [(1s,3s)-3-({1-[4-cyclopropyl-2-(2,2,2-trifluoroethyl)phenyl]imidazo[1,5-d][1,2,4]triazin-4-yl}amino)cyclobutyl]methanol]
10 to 100	COc1ccc(-c2nnc(N[C@H]3C[C@@](C)(CO)C3)n3cncc23)c(CC(F)(F)F)c1 [Compound 341, [(1s,3s)-3-({1-[4-methoxy-2-(2,2,2-trifluoroethyl)phenyl]imidazo[1,5-d][1,2,4]triazin-4-yl}amino)-1-methylcyclobutyl]methanol]
< 1	OCCN1CCC[C@@H](Nc2nnc(-c3ccc(OC(F)F)cc3OC(F)(F)F)c3cccn23)C1 [Compound 86, 2-[(3R)-3-({1-[4-(difluoromethoxy)-2-(trifluoromethoxy)phenyl]pyrrolo[1,2-d][1,2,4]triazin-4-yl}amino)piperidin-1-yl]ethan-1-ol]
10 to 100	COc1ccc(-c2nnc(NC3CCNC3=O)n3ccc(F)c23)c(C(F)(F)F)c1 (stereo not shown) [Compound 116, 3-({8-fluoro-1-[4-methoxy-2-(trifluoromethyl)phenyl]pyrrolo[1,2-d][1,2,4]triazin-4-yl}amino)pyrrolidin-2-one]
< 1	O=C1NCCC1Nc1nnc(-c2ccc(C(F)(F)F)cc2CC(F)(F)F)c2cncn12 (stereo not shown) [Compound 265, 3-({1-[2-(2,2,2-trifluoroethyl)-4-(trifluoromethyl)phenyl]imidazo[1,5-d][1,2,4]triazin-4-yl}amino)pyrrolidin-2-one]
1 to 10	COc1ccc(-c2nnc(N[C@@H]3CCCC[C@H]3O)n3cncc23)c(CC(F)(F)F)c1 [Compound 237, (1R,2R)-2-({1-[4-methoxy-2-(2,2,2-trifluoroethyl)phenyl]imidazo[1,5-d][1,2,4]triazin-4-yl}amino)cyclohexan-1-ol]
1 to 10	C[C@]1(O)C[C@@H](Nc2nnc(-c3ccc(C4CC4)cc3OC(F)F)c3cncn23)C1 [Compound 345, (1s,3s)-3-({1-[4-cyclopropyl-2-(difluoromethoxy)phenyl]imidazo[1,5-d][1,2,4]triazin-4-yl}amino)-1-methylcyclobutan-1-ol]

IC50 [nM]	SMILES
10 to 100	Cc1ccc(-c2nnc(N[C@H]3C[C@@H](CO)C3)n3cncc23)c(OC(F)(F)F)c1 [Compound 347, [(1s,3s)-3-({1-[4-methyl-2-(trifluoromethoxy)phenyl]imidazo[1,5-d][1,2,4]triazin-4-yl}amino)cyclobutyl]methanol]
< 1	CCN1CC[C@@H](O)[C@@H](Nc2nnc(-c3ccc(C(F)(F)F)cc3OC(F)F)c3cccn23)C1 [Compound 48, (3S,4R)-3-({1-[2-(difluoromethoxy)-4-(trifluoromethyl)phenyl]pyrrolo[1,2-d][1,2,4]triazin-4-yl}amino)-1-ethylpiperidin-4-ol]
< 1	CN1CCC[C@@H](Nc2nnc(-c3ccc(OC(F)F)cc3OC(F)(F)F)c3cccn23)C1 [Compound 44, 1-[4-(difluoromethoxy)-2-(trifluoromethoxy)phenyl]-N-[(3R)-1-methylpiperidin-3-yl]pyrrolo[1,2-d][1,2,4]triazin-4-amine]
< 1	COc1ccc(-c2nnc(N[C@@H]3CCCN(C)C3)n3cccc23)c(CC(F)(F)F)c1 [Compound 145, 1-[4-methoxy-2-(2,2,2-trifluoroethyl)phenyl]-N-[(3R)-1-methylpiperidin-3-yl]pyrrolo[1,2-d][1,2,4]triazin-4-amine]
10 to 100	COc1ccc(-c2nnc(N[C@@H]3CCC[C@H](O)C3)n3cccc23)c(C2CC2)c1 [Compound 106, (1S,3R)-3-{[1-(2-cyclopropyl-4-methoxyphenyl)pyrrolo[1,2-d][1,2,4]triazin-4-yl]amino}cyclohexan-1-ol]
< 1	CC(CO)N1CCC[C@@H](Nc2nnc(-c3ccc(C(F)(F)F)cc3OC(F)F)c3cccn23)C1 (stereo partly drawn) [Compound 22, 2-[(3R)-3-({1-[2-(difluoromethoxy)-4-(trifluoromethyl)phenyl]pyrrolo[1,2-d][1,2,4]triazin-4-yl}amino)piperidin-1-yl]propan-1-ol]
1 to 10	O[C@@H]1CCCC[C@H]1Nc1nnc(-c2ccc(C(F)(F)F)cc2OC(F)F)c2cccn12 [Compound 110, (1R,2R)-2-({1-[2-(difluoromethoxy)-4-(trifluoromethyl)phenyl]pyrrolo[1,2-d][1,2,4]triazin-4-yl}amino)cyclohexan-1-ol]
1 to 10	COc1ccc(-c2nnc(N[C@@H]3CCOC[C@H]3O)n3cccc23)c(CC(F)(F)F)c1 [Compound 144, (3S,4R)-4-({1-[4-methoxy-2-(2,2,2-trifluoroethyl)phenyl]pyrrolo[1,2-d][1,2,4]triazin-4-yl}amino)oxan-3-ol]
10 to 100	O[C@H]1CCOC[C@@H]1Nc1nnc(-c2ccc(C(F)(F)F)cc2CC(F)(F)F)c2cncn12 [Compound 400, (3S,4S)-3-({1-[2-(2,2,2-trifluoroethyl)-4-(trifluoromethyl)phenyl]imidazo[1,5-d][1,2,4]triazin-4-yl}amino)oxan-4-ol]
10 to 100	O[C@H]1CCCC[C@H]1Nc1nnc(-c2ccc(C(F)(F)F)cc2CC(F)(F)F)c2cncn12 [Compound 401, (1S,2R)-2-({1-[2-(2,2,2-trifluoroethyl)-4-(trifluoromethyl)phenyl]imidazo[1,5-d][1,2,4]triazin-4-yl}amino)cyclohexan-1-ol]
1 to 10	COc1ccc(-c2nnc(N[C@@H]3CCCN(CCO)C3)n3ccc(F)c23)c(Cl)c1 [Compound 83, 2-[(3R)-3-{[1-(2-chloro-4-methoxyphenyl)-8-fluoropyrrolo[1,2-d][1,2,4]triazin-4-yl]amino}piperidin-1-yl]ethan-1-ol]
1 to 10	CCN1CCC[C@@H](Nc2nnc(-c3ccc(C)cc3SC)c3cc(C)nn23)C1 [Compound 367, N-[(3R)-1-ethylpiperidin-3-yl]-2-methyl-4-[4-methyl-2-(methylsulfanyl)phenyl]pyrazolo[1,5-d][1,2,4]triazin-7-amine]
1 to 10	COc1ccc(-c2nnc(N[C@@H]3CCCC[C@H]3O)n3cncc23)c(OC(F)F)c1 [Compound 270, (1R,2R)-2-({1-[2-(difluoromethoxy)-4-methoxyphenyl]imidazo[1,5-d][1,2,4]triazin-4-yl}amino)cyclohexan-1-ol]
≥ 300	COc1cccc(C(C)Nc2nnc(-c3ccc(OC)cc3OC(F)(F)F)c3cncn23)c1 (stereo not shown) [Compound 230, N-[1-(3-methoxyphenyl)ethyl]-1-[4-methoxy-2-(trifluoromethoxy)phenyl]imidazo[1,5-d][1,2,4]triazin-4-amine]
< 1	CC(Nc1nnc(-c2ccc(OC(F)F)cc2OC(F)(F)F)c2cccn12)c1cccc(O)c1 (stereo not shown) [Compound 172, 3-[1-({1-[4-(difluoromethoxy)-2-(trifluoromethoxy)phenyl]pyrrolo[1,2-d][1,2,4]triazin-4-yl}amino)ethyl]phenol]
